Experimental data as given in patent US20250090699A1, “FAP TARGETING CYCLIC PEPTIDES AND CONJUGATES THEREOF” (Novartis AG, priority 2023, published 2025).
pIC50, pKd: −log10 of the molar value. Counter-ions that a name gives are not always drawn. Starred links: 1 amine or outer side, 2 acyl side, 3 side chain; linkers in the order of their positions; H or OH if unused. Non-standard residues stand in square brackets, D forms with d. Residues, ends and D or L forms follow the SMILES beside them. Groups on a side chain read outwards from the residue. *: point of attachment. F(4amDOTA-Lu) = lutetium complex of (S)-2,2',2''-(10-(2-((4-(2-amino-2-carboxyethyl)benzyl)amino)-2-oxoethyl)-1,4,7,10-tetraazacyclododecane-1,4,7-triyl)triacetic acid (Phe with 4-aminomethyl-DOTA-Lu), O=C([O-])CN1CCN(CC(=O)[O-])CCN(CC(=O)NCc2ccc(C[C@H](N[*:1])C(=O)[*:2])cc2)CCN(CC(=O)[O-])CC1.[Lu+3]; F(4OEtNHRDOTAGA-Ga) = Phe with 4-O-ethyl-NH-DOTAGA, Ga complex; Trp(7-OMe) = COc1cccc2c(C[C@H](N)C(=O)O)c[nH]c12; Trp(7-F) = N[C@@H](Cc1c[nH]c2c(F)cccc12)C(=O)O; NOTA = O=C(O)CN1CCN(CC(=O)O)CCN(CC(=O)*)CC1; Phe(4-CH2NH2) = NCc1ccc(C[C@H](N)C(=O)O)cc1; Piperazinyl(4-CH2COOH) = O=C(O)CN1CCN(*)CC1; X7 = CCCCC[C@@H](O)[C@H](N[*:1])C(=O)[*:2]; NMeAla(cPent) = CN[C@@H](CC1CCCC1)C(=O)O; AEF = NCCOc1ccc(C[C@H](N)C(=O)O)cc1; Hyp = O=C(O)[C@@H]1C[C@@H](O)CN1; NMeF = CN[C@@H](Cc1ccccc1)C(=O)O; Aoc(2) = CCCCCC[C@H](N)C(=O)O; Ahp(2) = CCCCC[C@H](N)C(=O)O; NMeK = CN[C@@H](CCCCN)C(=O)O; AEEA = NCCOCCOCC(=O)O; CO = O=C([*:1])[*:2]

How the values were obtained:
mouse FAP [1] = biological target: T1, mouse FAP (Mus musculus, UniProt P97321); test: Enzymatic FAP competition assay (Z-Gly-Pro-AMC fluorescence), mouse FAP; format: biochemical; conditions: read-out: m. FAP, Enz., IC50
T1 construct: biotinylated His, Avi tag, mouse FAP (26-761, FAP-M82Q5); His; Avi tag (biotinylated); purchased AcroBiosystems FAP-M82Q5
T1 sequence (P97321 26-761): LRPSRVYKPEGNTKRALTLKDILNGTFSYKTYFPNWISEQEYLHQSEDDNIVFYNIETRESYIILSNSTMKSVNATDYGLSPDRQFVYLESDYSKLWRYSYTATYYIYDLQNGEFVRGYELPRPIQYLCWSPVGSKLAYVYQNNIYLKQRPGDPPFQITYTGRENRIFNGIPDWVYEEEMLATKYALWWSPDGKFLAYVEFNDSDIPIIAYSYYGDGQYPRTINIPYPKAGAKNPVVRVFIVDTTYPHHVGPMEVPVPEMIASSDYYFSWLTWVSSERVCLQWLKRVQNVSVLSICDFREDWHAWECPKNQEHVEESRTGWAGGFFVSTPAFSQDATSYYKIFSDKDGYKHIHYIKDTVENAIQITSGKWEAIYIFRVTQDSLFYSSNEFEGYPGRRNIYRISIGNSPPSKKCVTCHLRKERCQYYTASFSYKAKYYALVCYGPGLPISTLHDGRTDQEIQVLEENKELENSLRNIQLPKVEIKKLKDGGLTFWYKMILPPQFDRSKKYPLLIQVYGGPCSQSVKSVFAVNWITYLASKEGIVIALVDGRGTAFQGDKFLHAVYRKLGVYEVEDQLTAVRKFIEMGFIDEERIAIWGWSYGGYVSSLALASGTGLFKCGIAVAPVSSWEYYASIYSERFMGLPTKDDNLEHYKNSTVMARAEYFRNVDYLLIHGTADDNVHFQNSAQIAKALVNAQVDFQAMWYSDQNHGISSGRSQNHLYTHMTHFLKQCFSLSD
Procedure, shortened: (§1)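 Biotinylated His/Avi-tagged FAP ectodomain (human 26-760, mouse 26-761) at 0.01 nM, preincubated 24 h with peptides (14 concentrations, up to 1 μM) in pH 7.5 phosphate, 150 mM NaCl, 0.05% Tween20, 1% DMSO. Then 50 μM Z-Gly-Pro-AMC, 4 h at 22-24° C; AMC fluorescence (380/460 nm) gave IC50 from duplicate points.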

mouse FAP [2] = biological target: T1, mouse FAP; test: Surface plasmon resonance (SPR) for peptide affinity, mouse FAP; format: binding
Procedure, shortened: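 Biotinylated His/Avi-tagged FAP ectodomains (human 26-760, mouse 26-761) captured or immobilized on Biacore sensor chips; peptides run at 25 °C in HBS-EP+ pH 7.6 with 2% DMSO, single-cycle kinetics, 8 concentrations. KD from 1:1 binding-model fit of sensorgrams.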

human FAP = biological target: T2, human FAP (Homo sapiens, UniProt Q12884); test: Enzymatic FAP competition assay (Z-Gly-Pro-AMC fluorescence), human FAP; format: biochemical; conditions: read-out: h. FAP, Enz., IC50
T2 construct: the biotinylated His, Avi tag, human FAP (26-760, FAP-H82Q6); His; Avi tag (biotinylated); purchased AcroBiosystems FAP-H82Q6
T2 sequence (Q12884 26-760): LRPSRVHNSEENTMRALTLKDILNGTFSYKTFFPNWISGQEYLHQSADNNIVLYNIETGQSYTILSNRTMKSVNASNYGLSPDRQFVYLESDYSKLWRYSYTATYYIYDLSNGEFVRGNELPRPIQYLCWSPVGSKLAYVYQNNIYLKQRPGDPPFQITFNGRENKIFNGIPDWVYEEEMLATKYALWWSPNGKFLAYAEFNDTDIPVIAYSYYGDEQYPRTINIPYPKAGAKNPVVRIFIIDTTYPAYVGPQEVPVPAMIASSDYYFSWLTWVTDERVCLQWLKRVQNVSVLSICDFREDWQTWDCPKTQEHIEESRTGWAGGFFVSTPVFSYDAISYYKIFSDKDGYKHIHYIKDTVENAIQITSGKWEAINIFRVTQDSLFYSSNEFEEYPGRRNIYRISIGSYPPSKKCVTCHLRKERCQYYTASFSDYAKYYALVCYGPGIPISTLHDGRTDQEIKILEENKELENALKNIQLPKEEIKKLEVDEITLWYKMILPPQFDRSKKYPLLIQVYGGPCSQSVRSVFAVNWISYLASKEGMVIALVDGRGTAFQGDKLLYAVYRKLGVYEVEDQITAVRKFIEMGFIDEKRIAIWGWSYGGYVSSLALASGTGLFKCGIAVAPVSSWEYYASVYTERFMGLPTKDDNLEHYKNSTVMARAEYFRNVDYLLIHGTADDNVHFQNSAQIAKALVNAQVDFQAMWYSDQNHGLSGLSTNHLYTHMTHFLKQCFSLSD
Procedure, shortened: as §1

CCCCC[C@@H](O)[C@@H]1NC(=O)[C@H](Cc2ccc(O)cc2)NC(=O)[C@H](Cc2ccccc2)N(C)C(=O)CNC(=O)CNC(=O)[C@H]2CCCN2C(=O)[C@H](CC(=O)O)NC(=O)[C@H](Cc2ccc(O)cc2)NC(=O)CNC(=O)[C@H](Cc2c[nH]c3ccccc23)NC1=O [Example A34, Gly-Gly-NMePhe-Tyr-Aoc(3R-OH)-Trp-Gly-Tyr-Asp-D-Pro] (cyclo(D[dP]GG[NMeF]Y[X7]WGY))
pIC50 (mouse FAP [1]): 9.40 | pKd (mouse FAP [2]): 9.60 | pIC50 (human FAP): 10.26

CCCCC[C@@H]1NC(=O)[C@H](Cc2ccc(O)cc2)NC(=O)[C@H](CC2CCCC2)N(C)C(=O)CNC(=O)[C@H](CCCCN)NC(=O)[C@H]2CCCN2C(=O)[C@H](CC(=O)O)NC(=O)[C@H](Cc2ccc(O)cc2)NC(=O)CNC(=O)[C@H](Cc2c[nH]c3ccccc23)NC1=O [Example A44, Lys-Gly-NMecPenA-Tyr-Ahp-Trp-Gly-Tyr-Asp-D-Pro, TFA salt] (cyclo([Ahp(2)]WGYD[dP]KG[NMeAla(cPent)]Y))
pIC50 (mouse FAP [1]): 8.60 | pKd (mouse FAP [2]): 8.57 | pIC50 (human FAP): 9.27

CCCCC[C@@H]1NC(=O)[C@H](Cc2ccc(O)cc2)NC(=O)[C@H](Cc2ccccc2)N(C)C(=O)CNC(=O)[C@H](CCCCN)NC(=O)[C@H]2CCCN2C(=O)[C@H](CC(=O)O)NC(=O)[C@H](Cc2ccc(O)cc2)NC(=O)CNC(=O)[C@H](Cc2c[nH]c3c(F)cccc23)NC1=O [Example A23, Lys-Gly-NMePhe-Tyr-Ahp-W(7F)-Gly-Tyr-Asp-D-Pro, TFA salt] (cyclo([Ahp(2)][Trp(7-F)]GYD[dP]KG[NMeF]Y))
pIC50 (mouse FAP [1]): 9.32 | pKd (mouse FAP [2]): 9.35 | pIC50 (human FAP): 9.95

CCCCC[C@@H]1NC(=O)[C@H](Cc2ccc(O)cc2)NC(=O)[C@H](Cc2ccccc2)N(C)C(=O)CNC(=O)CNC(=O)[C@H]2CCCN2C(=O)[C@H](CC(=O)O)NC(=O)[C@H](CCCCNC(=O)N2CCN(CC(=O)O)CC2)N(C)C(=O)CNC(=O)[C@H](Cc2c[nH]c3ccccc23)NC1=O [Example A3, 2-((9S,12S,15S,18S,24S,27S,32aR)-18-((1H-indol-3-yl)methyl)-9-benzyl-24-(4-(4-(carboxymethyl)piperazine-1-carboxamido)butyl)-12-(4-hydroxybenzyl)-8,23-dimethyl-1,4,7,10,13,16,19,22,25,28-decaoxo-15-pentyldotriacontahydropyrrolo[1,2-a][1,4,7,10,13,16,19,22,25,28]decaazacyclotriacontin-27-yl)acetic acid TFA salt] (cyclo([Ahp(2)]WG[NMeK]([CO-Piperazinyl(4-CH2COOH)])D[dP]GG[NMeF]Y))
pIC50 (mouse FAP [1]): 9.02 | pKd (mouse FAP [2]): 8.72 | pIC50 (human FAP): 9.12

CCCCC[C@@H]1NC(=O)[C@H](Cc2ccc(OCCN)cc2)NC(=O)[C@H](Cc2ccccc2)N(C)C(=O)CNC(=O)[C@H](CCCCNC(=O)N2CCN(CC(=O)O)CC2)NC(=O)[C@H]2CCCN2C(=O)[C@H](CC(=O)O)NC(=O)[C@H](Cc2ccc(O)cc2)NC(=O)CNC(=O)[C@H](Cc2c[nH]c3ccccc23)NC1=O [Example A46, K(COpipzaa)-Gly-NMePhe-F(4OEtNH2)-Ahp-Trp-Gly-Tyr-Asp-D-Pro, TFA salt] (cyclo([AEF][Ahp(2)]WGYD[dP]K([CO-Piperazinyl(4-CH2COOH)])G[NMeF]))
pIC50 (mouse FAP [1]): 8.55 | pKd (mouse FAP [2]): 8.66 | pIC50 (human FAP): 9.30

CCCCCC[C@@H]1NC(=O)[C@H](Cc2ccc(CNC(=O)COCCOCCNC(=O)CN3CCN(CC(=O)O)CCN(CC(=O)O)CC3)cc2)NC(=O)[C@H](Cc2ccccc2)N(C)C(=O)CNC(=O)CNC(=O)[C@H]2CCCN2C(=O)[C@H](CC(=O)O)NC(=O)[C@H](CCCCNC(=O)N2CCN(CC(=O)O)CC2)NC(=O)CNC(=O)[C@H](Cc2c[nH]c3ccccc23)NC1=O [Example B40, Gly-Gly-NMePhe-F(4amPEG2NHNOTA)-Aoc-Trp-Gly-K(COpipzaa)-Asp-D-Pro] (cyclo(GG[NMeF][Phe(4-CH2NH2)]([AEEA-NOTA])[Aoc(2)]WGK([CO-Piperazinyl(4-CH2COOH)])D[dP]))
pIC50 (mouse FAP [1]): 10.92 | pKd (mouse FAP [2]): > 10.62 | pIC50 (human FAP): 11.22

Gly-Gly-NMePhe-F(4amDOTA-Lu)-Ahp-Trp-Gly-Tyr-Asp-D-Pro (cyclo(GG[NMeF][F(4amDOTA-Lu)][Ahp(2)]WGYD[dP]); also: Lu complex) [Example C16]
pIC50 (mouse FAP [1]): 9.54 | pKd (mouse FAP [2]): 9.40 | pIC50 (human FAP): 10.08

CCCCC[C@@H]1NC(=O)[C@H](Cc2ccc(O)cc2)NC(=O)[C@H](Cc2ccccc2)N(C)C(=O)CNC(=O)CNC(=O)[C@H]2CCCN2C(=O)[C@H](CC(=O)O)NC(=O)[C@H](Cc2ccc(O)cc2)NC(=O)CNC(=O)[C@H](Cc2c[nH]c3c(OC)cccc23)NC1=O [Example A61, Gly-Gly-NMePhe-Tyr-Ahp-W(7OMe)-Gly-Tyr-Asp-D-Pro] (cyclo([Ahp(2)][Trp(7-OMe)]GYD[dP]GG[NMeF]Y))
pIC50 (mouse FAP [1]): 9.52 | pKd (mouse FAP [2]): 9.79 | pIC50 (human FAP): 10.19

Gly-Gly-NMePhe-F(4OEtNHRDOTAGA-Ga)-Ahp-Trp-Gly-Tyr-Asp-D-Pro (cyclo(GG[NMeF][F(4OEtNHRDOTAGA-Ga)][Ahp(2)]WGYD[dP]); also: Ga complex of DOTAGA) [Example C38]
pIC50 (mouse FAP [1]): 10.32 | pKd (mouse FAP [2]): 10.43 | pIC50 (human FAP): 10.92

CCCCC[C@@H]1NC(=O)[C@H](Cc2ccc(OCCN)cc2)NC(=O)[C@H](Cc2ccccc2)N(C)C(=O)CNC(=O)[C@@H]2C[C@@H](O)CN2C(=O)[C@H]2CCCN2C(=O)[C@H](CC(=O)O)NC(=O)[C@H](Cc2ccc(O)cc2)NC(=O)CNC(=O)[C@H](Cc2c[nH]c3ccccc23)NC1=O [Example A33, trans4Hyp-Gly-NMePhe-F(4OEtNH2)-Ahp-Trp-Gly-Tyr-Asp-D-Pro] (cyclo([AEF][Ahp(2)]WGYD[dP][Hyp]G[NMeF]))
pIC50 (mouse FAP [1]): 8.49 | pKd (mouse FAP [2]): 8.96 | pIC50 (human FAP): 9.00

CCCCC[C@@H]1NC(=O)[C@H](Cc2ccc(OCCN)cc2)NC(=O)[C@H](Cc2ccccc2)N(C)C(=O)CNC(=O)CNC(=O)[C@H]2CCCN2C(=O)[C@H](CC(=O)O)NC(=O)[C@H](Cc2ccc(O)cc2)NC(=O)CNC(=O)[C@H](Cc2c[nH]c3ccccc23)NC1=O [Example A59, Gly-Gly-NMePhe-F(4OEtNH2)-Ahp-Trp-Gly-Tyr-Asp-D-Pro, TFA salt] (cyclo([AEF][Ahp(2)]WGYD[dP]GG[NMeF]))
pIC50 (mouse FAP [1]): 9.31 | pKd (mouse FAP [2]): 9.42 | pIC50 (human FAP): 9.87
